The test system of test [1] is demyelination model mice (0.2% cuprizone), corpus callosum. Briefly: Histological staining (Black Gold II) of corpus callosum and evaluation of demyelination (Example 2). In kind it is in vivo, C57BL/6j mice. As to conditions: intraperitoneal 1.6 mg/kg/day for 5 weeks, FIG. 3, FIG. 4. The source says: 10-week-old male C57BL/6j mice (Tokyo Laboratory Animals Science Co., Ltd., Tokyo, Japan) were fed by the discretionary intake of a mash feed (CLEA Japan, Inc.) that contained 0.2% cuprizone (biscyclohexanone oxalyl hydrazone; Merck KGaA, Darmstadt, Germany) for 5 weeks until demyelination progressed most, so as to produce demyelination model mice involving demyelination caused by oligodendrocyte-specific cell death. To obtain tissues to be used for histological analysis, a mouse was subjected to perfusion fixation through the heart with 4% paraformaldehyde, and the resulting brain tissues were then excised from the mouse. Thereafter, the tissues were immobilized and infiltrated with 30% sucrose. Thereafter, a frozen tissue block was prepared and was then sliced in a cryostat. The cPA used in the experiment was the same cPA (16:0) as that used in Example 1, and the carba-cPA was 2 ccPA (16:1). The cPA and 2 ccPA were chemically purified (Biochimica et Biophysica Acta, Emi Nozaki 2011), and were then dissolved in a 0.9% saline. […] For the analysis of the level of myelin, using Image J 1.46r software, the stained level in the corpus callosum area was measured, and the demyelination level was then evaluated, while setting the control as 100%.

The test system is the same in test [2]. As to the kind of experiment: Electron microscope observation of myelin structure in corpus callosum. In kind it is in vivo, C57BL/6j mice. The note with it: intraperitoneal 1.6 mg/kg/day for 5 weeks, FIG. 5. The source says: 10-week-old male C57BL/6j mice (Tokyo Laboratory Animals Science Co., Ltd., Tokyo, Japan) were fed by the discretionary intake of a mash feed (CLEA Japan, Inc.) that contained 0.2% cuprizone (biscyclohexanone oxalyl hydrazone; Merck KGaA, Darmstadt, Germany) for 5 weeks until demyelination progressed most, so as to produce demyelination model mice involving demyelination caused by oligodendrocyte-specific cell death.
The cPA used in the experiment was the same cPA (16:0) as that used in Example 1, and the carba-cPA was 2 ccPA (16:1). The cPA and 2 ccPA were chemically purified (Biochimica et Biophysica Acta, Emi Nozaki 2011), and were then dissolved in a 0.9% saline. The cPA and 2 ccPA were continuously administered to mice via intraperitoneal administration for 5 weeks (1.6 mg/kg/day), at the same time with administration of cuprizone. Control mice were fed with a normal mash feed, and a normal saline was continuously administered to the control mice via intraperitoneal administration for 5 weeks.
Five weeks after administration of cuprizone, mice were subjected to perfusion fixation with 4% paraformaldehyde, and the brain was then collected from each mouse. Thereafter, corpus callosum tissues were removed from the brain, were then pre-fixed with 2.5% glutaraldehyde fixative, and were then washed with a 0.1 M cacodylate buffer. […]

The subject of test [3] is demyelination model mice (0.2% cuprizone). As to the kind of experiment: Myelin level by Black Gold staining in cuprizone demyelination model mice (Example 1). The note with it: intraperitoneal 40 μg/200 μl saline/day for 5 weeks, FIG. 2. In kind it is in vivo, C57BL/6 mice. The method, then:
10-week-old male C57BL/6 mice were fed with a mash feed containing 0.2% cuprizone for five weeks until the most significant demyelination occurred, so as to produce demyelination model mice. cPA and carba-cPA (cPA) powders were each dissolved in a saline, and the obtained solutions were each administered intraperitoneally at a dose of 40 μg/200 μl saline/day to the mice every day for 5 weeks. On the other hand, to negative control mice, a saline (200 μl/day) was intraperitoneally administered in the same manner as described above. The mice, to which the test compound had been administered, were subjected to perfusion fixation with 4% paraformaldehyde, and sections to be used for frozen tissue staining (30 μm) were then prepared in a cryostat (FIG. 1). The level of myelin in each mouse was measured by Black Gold staining, and the demyelination level was then measured based on the stained level (FIG. 2).

Consider one molecule from patent publication US10413559B2, “Method for treating demyelinating disease” (OCHANOMIZU UNIVERSITY, priority 2013, dated 2019).

Each structure is given as a SMILES string.

In the case of `CCCCCCCCCCCCCCCC(=O)OCC1COP(=O)(O)O1` (stereo not drawn) [cPA], the “demyelination level in corpus callosum (Black Gold II staining)” value in test [1] was “demyelination is suppressed”. Moreover, the “demyelination by electron microscope observation of myelin structure” value in test [2] is on record as “demyelination is suppressed”. Moreover, the “level of myelin (Black Gold staining) versus control mouse” value in test [3] was “higher than the level of myelin in a control mouse”.
